# Measurements taken from patent US12331042B2, “Compounds suitable for the treatment and prophylaxis of muscle wasting and other conditions” (priority 2019, dated 2025).
# “Also recorded” adds a separate entry of the source.
# Assays:
# [1] = system: MAFbx, MuRF1, CARP, BAX, eIF2B-delta expression; assay: Western blot analysis of TA muscle, MCT mice; format: in vivo
# Source text: The Western blot analyses consisted of frozen TA muscle samples being homogenized in RIPA buffer (50 mmol/L Tris, 150 mmol/L sodium chloride, 1 mmol/L EDTA, 1% NP-40, 0.25% sodium-deoxycholate, 0.1% SDS, 1% Triton X-100; pH 7.4) or relax buffer (90 mmol/L HEPES, 126 mmol/L potassium chloride, 1 mmol/L MgCl, 50 mmol/L EGTA, 8 mmol/L ATP, 10 mmol/1 Creatinephosphate; pH 7.4) containing a protease inhibitor mix (Inhibitor mix M, Serva, Heidelberg, Germany), sonicated, and centrifuged at 16,000×g for 5 min. Protein concentration of the supernatant was determined (BCA assay, Pierce, Bonn, Germany) and aliquots (5-20 μg) were separated by SDS-polyacrylamide gel electrophoresis. Proteins were transferred to a polyvinylidene fluoride membrane (PVDF) and incubated overnight at 4° C. with the following primary antibodies: MAFbx ( 1/2000, Eurogentec, Seraing, Belgium), MuRF1 ( 1/1000, Myomedix Ltd., Neckargemünd, Germany), CARP ( 1/500, Myomedix Ltd., Neckargemünd, Germany), BAX ( 1/1000; Abcam, Cambridge, UK), and eIF2B-delta ( 1/200; Santa Cruz Biotechnolgy, Santa Cruz, USA). Membranes were subsequently incubated with a horseradish peroxidase-conjugated secondary antibody and specific bands visualized by enzymatic chemiluminescence (Super Signal West Pico, Thermo Fisher Scientific Inc., Bonn, Germany) and densitometry quantified using a 1D scan software package (Scanalytics Inc., Rockville, USA). Blots were then normalized to the loading control GAPDH ( 1/30000; HyTest Ltd, Turku, Finland). All data are presented as fold change relative to sham.
# MuRF1 central fragment = assay: Differential scanning fluorimetry (DSF) of MuRF1 central fragment; format: binding; settings: 100 μM compound, 1% DMSO in PBS, 75 μM protein; 65.8° C. with 1% DMSO alone
# Method: The effect of compound MyoMed-946 on MuRF1 protein stability was determined in vitro by differential scanning fluorimetry (DSF).
# “MuRF1 central fragment” was expressed as previously described (Mrosek M et al., FASEB J, 2007, 21, 1383-1392) and used in DSF experiments at 75 μM final concentration. Compound MyoMed-946 was diluted from a 10 mM stock in DMSO to 100 μM in PBS as DSF assay buffer, resulting in a final concentration of 1% DMSO. After 1 hour pre-incubation at room temperature, the aqueous protein solutions were soaked into capillaries and placed into a Prometheus NT.48 nanoDSF device (NanoTemper Technologies, Munich, Germany). Changes in the intrinsic tryptophan or tyrosine fluorescence that occurred after LED laser excitement upon protein unfolding in a thermal gradient was detected at 330 nm and 350 nm, respectively. […] The first derivative of the fluorescence wavelength ratio of 350/330 nm upon thermal protein unfolding was used to calculate transition midpoint (Tm) of single and multiple transition states.
# [2] = system: Mrps5 (mitochondrial ribosomal protein 5); assay: Proteomic analysis of diaphragm tissue, CHF mice; format: in vivo, Mus musculus; settings: CHF mice with vs without compound feeding, P=0.02
# Method: To analyze the molecular mechanisms underlying the observed physiological changes and benefits of MyoMed-946-treated mice suffering from CHF, comparative quantitative proteomic analysis as well as Western blot analysis of diaphragm tissue from sham, CHF, and CHF+MyoMed-946-treated mice were performed.
# Mass spectrometry-based proteomic analysis was performed at the DZHK Core Facility, Bad Nauheim, Germany. Obtained MS raw data were processed by MaxQuant (1.6.0.1) using the Andromeda search engine and the Uniprot database for Mus musculus (as of 20 Apr. 2017). At a false discovery rate of 1% (both peptide and protein levels), >2600 protein groups were identified. The reductive dimethylation protocol employed (see Boersema et al., Nat Protoc, 2009, 4, 484-494) yielded pairwise relative comparative quantitation (ratios) between proteins from CHF+MyoMed-946, CHF, and sham conditions, which were statistically queried for significant differences using standard statistical tests. Several proteins were identified to be statistically different (e.g. TNNT3, Timm9, Ccdc5, Adi1, Ptges3, and Ndufa3).
# [3] = system: diaphragm fiber bundle of CHF mice; assay: Contractile function of diaphragm fiber bundles, CHF mice; format: in vivo
# Method: To provide a direct functional assessment, the contractility in skeletal muscle fiber bundles, i.e. fibre bundle from the diaphragm of MCT mice and CIF mice, was measured as follows. A fiber bundle from the diaphragm was isolated to allow in vitro contractile function to be assessed using a length-controlled lever system (301B, Aurora Scientific Inc., Aurora, Canada), as described by Bowen et al., FASEB J, 2017, 31. Briefly, a muscle bundle was mounted vertically in a buffer-filled organ bath (˜22° C.), set at optimal length, and after 15 min was stimulated over a force-frequency protocol between 1-300 Hz (600 mA; 500 ms train duration; 0.25 ms pulse width). […] Shortening velocity was determined 10 ms after the first change in length and on the linear section of the transient (DMA software, Aurora Scientific). Force (N) was normalized to muscle cross-sectional area (CSA; cm^2) by dividing muscle mass (g) by the product of Lo (cm) and estimated muscle density (1.06), which allowed specific force in N/cm^2 to be calculated. Shortening velocity was normalized to optimal muscle length (in Lo/s), while power was calculated for each load as the product of shortening velocity and specific force (in W/cm^2).
# [4] = system: monocrotaline (MCT)-treated C57BL/6 mice; assay: Pulmonary hypertension mouse model, test series 2; format: in vivo; settings: MCT+compound (0.1 weight-% in chow) vs MCT, 8 weeks
# Method: The test series 2 were performed analogous to test series 1. Briefly, Three groups of mice were included in this study: 1) saline-treated mice (sham; n=10); 2) monocrotaline (MCT)-treated mice fed with normal chow (MCT; n=10); and 3) MCT-treated mice fed with MuRF1 inhibitor chow (MCT+compound; n=10 for each compound). 8 weeks old C57BL/6 mice were subcutaneously injected weekly with either MCT (600 mg/kg) or a matched volume of saline for 8 weeks. The MCT+compound group started receiving the inhibitor chow 1 week prior to the MCT injections, whereas the sham and MCT groups were fed an identical chow but without the addition of the selected compound. The compound concentration in the chow was 0.1 weight-%, resulting in a daily compound intake per mouse of about 3 mg. Body weight was recorded every week for each mouse. Mice were sacrificed after 8 weeks treatment. At sacrifice, examination and tissue analysis were performed as described in test series 1.
compound,measurement,setting,value
"Cc1cc(=O)oc2cc(OCc3ccc(C(=O)OCC(=O)NC(=O)NCc4ccco4)cc3)ccc12 [MyoMed-946, [2-(2-furylmethylcarbamoylamino)-2-oxo-ethyl] 4-[(4-methyl-2-oxo-chromen-7-yl)oxymethyl]benzoate]",increase in CARP expression,[1]; MCT+compound vs MCT,attenuated; also recorded: abolished
same,increased protein expression of MuRF1,[1]; MCT+compound vs MCT,attenuated; also recorded: prevented
same,protein expression of MAFBx,[1]; MCT+compound vs MCT,No changes are detected; also recorded: no effects were observed
same,expression of eIF2B (delta subunit),"[1]; MCT+compound vs MCT, confirmed by immunoblotting",upregulation
same,expression of BAX,"[1]; MCT+compound, upregulated in MCT vs sham",normalized
same,main Tm of MuRF1 central fragment,MuRF1 central fragment,52.5 °C
same,Mrps5 protein level (proteomics),[2],significantly up-regulated
same,post-infarct diaphragm weakness (diaphragm myopathy),"[3]; CHF mice fed compound vs control chow, week 10",protected mice from such a post-infarct diaphragm weakness
same,loss of diaphragm function and diaphragm maximal force due to chronic heart failure,[3]; CHF mice fed compound vs untreated CHF mice,significantly reduced
same,right ventricle hypertrophy,[4],attenuated; also recorded: attenuate the development of right ventricle hypertrophy
